This note sets out measurements from ChEMBL document CHEMBL1201862, “PubChem BioAssay data set” (2004).

Assay [1] concerns BJ. Nature of the assay: cytotoxicity toward BJ-TERT fibroblasts, dose response, cell-based, RAS-independent, luminescence (AID 1933). Type of assay: functional. The note with it: Homo sapiens.
Assay [2] concerns the target T1, Heat shock factor protein 1 (Mus musculus, UniProt P38532).
T1 sequence (P38532 whole entry): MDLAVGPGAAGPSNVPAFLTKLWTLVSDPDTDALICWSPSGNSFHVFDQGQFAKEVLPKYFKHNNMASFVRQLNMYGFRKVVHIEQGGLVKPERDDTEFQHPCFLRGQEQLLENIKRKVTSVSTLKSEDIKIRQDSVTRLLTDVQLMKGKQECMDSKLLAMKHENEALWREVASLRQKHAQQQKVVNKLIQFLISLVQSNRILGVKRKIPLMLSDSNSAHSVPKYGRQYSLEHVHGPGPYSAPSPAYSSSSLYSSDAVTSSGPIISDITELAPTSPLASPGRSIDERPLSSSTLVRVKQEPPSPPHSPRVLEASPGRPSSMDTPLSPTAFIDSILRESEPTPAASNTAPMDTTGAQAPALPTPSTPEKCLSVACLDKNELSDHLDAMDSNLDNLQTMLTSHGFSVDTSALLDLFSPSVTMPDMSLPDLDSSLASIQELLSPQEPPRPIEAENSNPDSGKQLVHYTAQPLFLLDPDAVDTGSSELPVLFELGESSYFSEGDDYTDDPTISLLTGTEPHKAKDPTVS
Nature of the assay: inhibition of MG132-induced HSE-luciferase signal, confirmation, cell-based, NIH3T3, luminescence, dose retest (AID 2382).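 Further: NIH3T3 fibroblasts with HSF1-driven luciferase reporter stressed by proteasome inhibitor MG132; luminescence from HSF1-driven luciferase expression after 8 hours of MG132 stress.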 Format: functional.

In assay [3] the test system is BJ. The assay is described as follows: cells. Format: functional, cell-based. As to conditions: Homo sapiens.
Assay [4] deals with T2, Sphingosine 1-phosphate receptor 4 (Homo sapiens, UniProt O95977).
T2 sequence (O95977 whole entry): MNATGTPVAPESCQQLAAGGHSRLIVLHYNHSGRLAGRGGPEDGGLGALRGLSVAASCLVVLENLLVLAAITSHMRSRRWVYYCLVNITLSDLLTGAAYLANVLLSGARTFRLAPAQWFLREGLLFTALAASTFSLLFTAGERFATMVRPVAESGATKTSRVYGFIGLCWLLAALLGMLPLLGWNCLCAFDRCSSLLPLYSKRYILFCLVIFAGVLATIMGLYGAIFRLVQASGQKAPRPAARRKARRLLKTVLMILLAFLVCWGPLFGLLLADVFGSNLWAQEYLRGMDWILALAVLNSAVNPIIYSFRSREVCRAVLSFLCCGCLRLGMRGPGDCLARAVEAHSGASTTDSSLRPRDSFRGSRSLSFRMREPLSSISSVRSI
Nature of the assay: Fluorescence dose response cell-based high throughput screening assay for antagonists of the Sphingosine 1-Phosphate Receptor 4 (S1P4). [Related pubchem assays: 1524 (Confirmation in triplicates.), 1510 (Primary screen.)]. Type of assay: functional.

Assay [5] relates to BJ. The assay is described as follows: cytotoxicity toward BJ-TERT-LT-ST fibroblasts, dose response, cell-based, RAS-independent, luminescence (AID 1935).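 Further: BJ fibroblasts immortalized with TERT plus LT and ST oncogenes.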 Format: functional. The note with it: Homo sapiens.
Assay [6] in a line: cytotoxicity toward DRD oncogenic fibroblasts, dose response, cell-based, non-viral oncogenic, luminescence (AID 1934). Format: functional. The note with it: Homo sapiens.
Assay [7] addresses Sphingosine 1-phosphate receptor 1 (Homo sapiens, UniProt P21453). Format: functional.
Another assay deals with Integrin alpha-4 (Homo sapiens, UniProt P13612). The assay is described as follows: VLA-4 integrin allosteric ligands, SAR follow-up, cell-based, LIBS antibody binding, flow cytometry (AID 488791). Format: functional.
A further assay relates to CHO. The assay is described as follows: cytotoxicity in TLR9-MyD88 CHO cells, dose response, cytotoxicity control for TLR9-MyD88 binding inhibitor project, cell-based, luminescence (AID 588339).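 Further: CHO cells stably coexpressing TLR9 and MyD88 fusions from primary screen; compound exposure lasted 48 hours before viability readout.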 Type of assay: functional, hamster. As to conditions: Cricetulus griseus.
For another assay, the target named is Beta Lactamase (Pseudomonas aeruginosa, UniProt Q932Y6). The assay is described as follows: beta-lactamase reporter inhibitor potency, dose response, artefact control for TLR9-MyD88 binding inhibitor project, BLA reporter cells, FRET fluorescence (AID 588341).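 Further: cell based assay in CHO-K1 cells stably expressing beta-lactamase.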 Format: cell-based.
Another assay concerns the target T3, Coagulation factor XII (Homo sapiens, UniProt P00748).
T3 sequence (P00748 whole entry): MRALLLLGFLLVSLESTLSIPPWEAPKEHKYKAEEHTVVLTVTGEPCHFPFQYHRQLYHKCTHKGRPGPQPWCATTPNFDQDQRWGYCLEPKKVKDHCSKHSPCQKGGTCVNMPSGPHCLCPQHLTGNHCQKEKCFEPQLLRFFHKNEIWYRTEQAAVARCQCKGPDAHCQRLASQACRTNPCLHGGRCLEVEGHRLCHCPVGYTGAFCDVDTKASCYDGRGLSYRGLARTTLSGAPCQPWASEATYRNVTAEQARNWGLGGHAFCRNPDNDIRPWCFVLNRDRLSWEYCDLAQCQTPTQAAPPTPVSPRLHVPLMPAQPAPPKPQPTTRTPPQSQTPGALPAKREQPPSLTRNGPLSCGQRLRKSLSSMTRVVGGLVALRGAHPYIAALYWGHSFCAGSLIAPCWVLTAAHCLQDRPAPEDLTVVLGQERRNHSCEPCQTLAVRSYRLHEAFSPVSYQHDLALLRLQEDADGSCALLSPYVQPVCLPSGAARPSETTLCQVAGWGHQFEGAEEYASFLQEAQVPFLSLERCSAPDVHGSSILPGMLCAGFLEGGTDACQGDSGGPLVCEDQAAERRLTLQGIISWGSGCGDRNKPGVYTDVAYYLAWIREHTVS
The assay is described as follows: FXIIa inhibitor potency, concentration-response, biochemical (AID 716). Format: functional.

The target of a further assay is Mu-type opioid receptor (Homo sapiens, UniProt P35372). Nature of the assay: SAR Analysis of Antagonists of the MOR Receptor using an Image-Based Assay - Set 3. [Related pubchem assays (depositor defined):AID1777, AID1785, AID1786, AID1966, AID2133, AID2136, AID2284, AID2285, AID2420]. Type of assay: functional.
Assay [8] has as its target Delta-type opioid receptor (Homo sapiens, UniProt P41143). Nature of the assay: SAR Analysis of Antagonists of the DOR Receptor using an Image-Based Assay - Set 3. [Related pubchem assays (depositor defined):AID1777, AID1785]. Type of assay: functional.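 Further: U2OS cells expressing DOR1 and beta-arrestin GFP stimulated with 100 nM SNC80; imaging of GFP-tagged beta-arrestin moving into spots after receptor activation.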
Assay [9] deals with T4, Kappa-type opioid receptor (Homo sapiens, UniProt P41145). Nature of the assay: SAR analysis of small molecule antagonists of the kappa opioid receptor via a luminescent beta-arrestin assay - Set 3. [Related pubchem assays (depositor defined):AID1777, AID1778, AID1785, AID1786, AID1966, AID2133, AID2136, AID2285, AID2495]. Format: functional.
In assay [10] the target is T4, Kappa-type opioid receptor. Nature of the assay: SAR analysis of Antagonists of the Kappa Opioid Receptor (KOR) using an Image-Based Assay - Set 4. [Related pubchem assays (depositor defined):AID1777, AID1785]. Type of assay: functional.

The source made the active and inactive calls. A value given as a limit tells only on which side of the number the result lay.

T4 sequence (P41145 whole entry): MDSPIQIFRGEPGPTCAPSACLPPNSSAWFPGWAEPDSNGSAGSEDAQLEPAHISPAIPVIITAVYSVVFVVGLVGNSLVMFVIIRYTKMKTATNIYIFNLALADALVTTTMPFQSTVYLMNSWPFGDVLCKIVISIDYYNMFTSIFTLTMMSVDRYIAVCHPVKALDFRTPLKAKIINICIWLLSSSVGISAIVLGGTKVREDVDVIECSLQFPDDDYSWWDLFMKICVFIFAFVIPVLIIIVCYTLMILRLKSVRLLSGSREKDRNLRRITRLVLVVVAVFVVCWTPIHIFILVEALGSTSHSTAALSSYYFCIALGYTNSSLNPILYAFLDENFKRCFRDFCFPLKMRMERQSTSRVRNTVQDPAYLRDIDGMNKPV
Chain of Mu-type opioid receptor (P35372 whole entry): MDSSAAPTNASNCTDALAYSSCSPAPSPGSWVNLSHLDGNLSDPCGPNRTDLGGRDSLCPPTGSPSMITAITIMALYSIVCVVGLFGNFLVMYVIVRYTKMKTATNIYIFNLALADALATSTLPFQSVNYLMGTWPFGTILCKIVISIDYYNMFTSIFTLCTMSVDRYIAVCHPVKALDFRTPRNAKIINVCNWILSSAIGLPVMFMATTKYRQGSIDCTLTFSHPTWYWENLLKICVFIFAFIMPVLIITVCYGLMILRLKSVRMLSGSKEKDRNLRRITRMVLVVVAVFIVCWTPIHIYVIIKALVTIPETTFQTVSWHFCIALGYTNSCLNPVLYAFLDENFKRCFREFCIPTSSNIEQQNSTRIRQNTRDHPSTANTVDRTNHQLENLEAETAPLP
Chain of Beta Lactamase (Q932Y6 whole entry): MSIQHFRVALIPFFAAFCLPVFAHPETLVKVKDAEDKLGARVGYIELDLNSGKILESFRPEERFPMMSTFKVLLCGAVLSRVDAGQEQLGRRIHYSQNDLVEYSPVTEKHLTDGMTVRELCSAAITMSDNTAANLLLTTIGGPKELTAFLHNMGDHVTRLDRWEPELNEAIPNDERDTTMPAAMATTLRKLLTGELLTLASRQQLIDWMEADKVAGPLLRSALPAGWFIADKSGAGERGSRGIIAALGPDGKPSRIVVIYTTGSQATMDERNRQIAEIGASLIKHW
Chain of Integrin alpha-4 (P13612 whole entry, the tested form may be a part): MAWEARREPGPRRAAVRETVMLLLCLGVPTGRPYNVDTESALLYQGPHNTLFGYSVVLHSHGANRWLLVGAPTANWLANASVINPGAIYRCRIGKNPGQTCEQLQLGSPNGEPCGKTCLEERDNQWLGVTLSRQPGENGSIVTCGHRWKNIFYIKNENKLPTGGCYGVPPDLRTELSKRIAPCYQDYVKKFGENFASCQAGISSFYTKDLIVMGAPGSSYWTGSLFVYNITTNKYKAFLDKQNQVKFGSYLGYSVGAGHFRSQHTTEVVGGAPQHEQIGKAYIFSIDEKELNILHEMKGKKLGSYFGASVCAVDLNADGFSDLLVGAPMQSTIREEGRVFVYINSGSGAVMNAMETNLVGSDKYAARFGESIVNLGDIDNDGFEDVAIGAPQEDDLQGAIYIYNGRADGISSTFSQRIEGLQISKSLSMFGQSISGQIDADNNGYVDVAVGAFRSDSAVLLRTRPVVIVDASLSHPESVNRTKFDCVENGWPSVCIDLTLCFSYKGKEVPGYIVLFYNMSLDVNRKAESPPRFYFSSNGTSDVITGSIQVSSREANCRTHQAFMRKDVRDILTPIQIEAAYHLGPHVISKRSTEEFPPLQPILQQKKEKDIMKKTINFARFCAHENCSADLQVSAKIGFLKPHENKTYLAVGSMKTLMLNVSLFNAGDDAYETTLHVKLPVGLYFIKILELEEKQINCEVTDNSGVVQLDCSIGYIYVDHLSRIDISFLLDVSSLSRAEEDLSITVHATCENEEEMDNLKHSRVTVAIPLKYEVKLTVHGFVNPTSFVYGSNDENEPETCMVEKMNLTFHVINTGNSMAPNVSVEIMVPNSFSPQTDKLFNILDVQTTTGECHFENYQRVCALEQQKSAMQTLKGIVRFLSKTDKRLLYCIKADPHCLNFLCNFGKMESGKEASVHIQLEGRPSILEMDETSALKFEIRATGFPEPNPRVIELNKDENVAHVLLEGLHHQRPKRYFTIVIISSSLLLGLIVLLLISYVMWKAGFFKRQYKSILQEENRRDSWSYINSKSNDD
Chain of Sphingosine 1-phosphate receptor 1 (P21453 whole entry): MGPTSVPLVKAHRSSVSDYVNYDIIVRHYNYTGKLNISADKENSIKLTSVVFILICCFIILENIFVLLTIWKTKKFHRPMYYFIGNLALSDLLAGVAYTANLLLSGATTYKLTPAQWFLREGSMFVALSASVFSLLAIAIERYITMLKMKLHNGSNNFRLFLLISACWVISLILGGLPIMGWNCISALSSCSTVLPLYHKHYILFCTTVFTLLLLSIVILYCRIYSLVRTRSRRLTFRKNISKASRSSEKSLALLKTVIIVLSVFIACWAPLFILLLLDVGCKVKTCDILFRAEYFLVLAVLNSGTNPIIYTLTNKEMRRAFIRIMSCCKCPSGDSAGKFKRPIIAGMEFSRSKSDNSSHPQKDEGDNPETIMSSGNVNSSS
Chain of Delta-type opioid receptor (P41143 whole entry): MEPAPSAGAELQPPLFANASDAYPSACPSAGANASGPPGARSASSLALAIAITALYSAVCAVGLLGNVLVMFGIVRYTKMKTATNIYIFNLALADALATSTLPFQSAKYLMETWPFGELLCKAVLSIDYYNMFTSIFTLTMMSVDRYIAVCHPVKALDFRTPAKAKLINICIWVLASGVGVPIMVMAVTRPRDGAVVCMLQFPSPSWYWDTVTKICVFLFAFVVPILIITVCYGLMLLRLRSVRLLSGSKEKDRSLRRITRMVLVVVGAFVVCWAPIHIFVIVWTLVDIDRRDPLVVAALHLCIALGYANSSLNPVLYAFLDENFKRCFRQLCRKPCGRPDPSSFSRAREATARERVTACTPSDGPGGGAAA

With `CCOC(=O)COc1ccccc1/C=C\[N+](=O)[O-]`, the EC50 (commonly the concentration at which the effect is half-maximal) was 3.48 µM (inconclusive) with BJ [1]; 4.03 µM (active) in assay [2]; 26.7 µM (active) in the assay with BJ [3]; 3.99 µM (inconclusive) in the assay with BJ [5]; 4.76 µM (active) in assay [6]; 0.335 µM (active) on Integrin alpha-4. The IC50 (usually the concentration at which inhibition is half-maximal) in assay [4] is 0.962 µM (active); in [7], 3.42 µM (active); in the assay on CHO, 1.92 µM (active); at Beta Lactamase, > 49.7 µM (inactive).

Consider `O=C(c1cccc(F)c1)n1nnc2ccccc21`, for which the IC50 on Coagulation factor XII is 10.5 µM (active).

As for `O=C(Cn1c(=O)c2cccn2c2cc(Br)cnc21)NCCCN1CCN(c2ccc(Cl)cc2)CC1`, the IC50 was 5.32 µM (active) on Mu-type opioid receptor, > 32 µM (inactive) in assay [8], > 20 µM (inactive) in [9] and > 32 µM (inactive) in assay [10].
